Key:
Rattus norvegicus [1] = test: Ratio of sodium ion/potassium ion concentration in treated rats to that in control rats, at a peroral dose of 25 mg/Kg; assay type: functional
Rattus norvegicus [2] = test: Oral diuretic activity was measured after oral administration of 25 mg/kg to rats(control volume is 0.69+/-0.03); assay type: functional, Urine
Rattus norvegicus [3] = test: Ratio of urinary excretion value (urinary volume) in treated rats to that in control rats, at a peroral dose of 25 mg/Kg; assay type: functional, Urine
Rattus norvegicus [4] = test: Percent inhibition of serum creatinine by the compound given as ratio of Cr value in treated to vehicle treated ones after intraperitoneal administration of 1 mg/kg of compound to rats(vehicle 3.06+/-0.68); assay type: functional; conditions: ip
Rattus norvegicus [5] = test: Percent inhibition of serum creatinine by the compound given as ratio of Cr value in treated to vehicle treated ones after intraperitoneal administration of 10 mg/kg of compound to rats(vehicle 4.26+/-0.39); assay type: functional; conditions: ip
Rattus norvegicus [6] = test: Ratio of urinary excretion value (Na+ concentration) in treated rats to that in control rats, at a peroral dose of 1.6 mg/Kg; assay type: functional, Urine
Rattus norvegicus [7] = test: Effect on urinary excretion potassium and sodium after oral administration of 25 mg/kg to rats(potassium and sodium excretion in control rat is 0.079+/-0.007); assay type: functional, Urine
Rattus norvegicus [8] = test: Urea nitrogen concentration measured after intraperitoneal administration of 1 mg/kg of compound to rats(vehicle 120.9+/-23.3); assay type: functional
Rattus norvegicus [9] = test: Effect on urinary excretion potassium and sodium after oral administration of 1.6 mg/kg to rats(potassium and sodium excretion in control rat is 0.158+/-0.034); assay type: functional, Urine
Rattus norvegicus [10] = test: Urea nitrogen concentration measured after intraperitoneal administration of 10 mg/kg of compound to rats(vehicle 146.7+/-10.1); assay type: functional
Rattus norvegicus [11] = test: Percent inhibition of serum creatinine by the compound given as ratio of UN value in treated to vehicle treated ones after intraperitoneal administration of 1 mg/kg of compound to rats(vehicle 120.9+/-23.3); assay type: functional; conditions: ip
Rattus norvegicus [12] = test: Serum creatinine concentration measured after intraperitoneal administration of 10 mg/kg of compound to rats(vehicle 4.26+/-0.39); assay type: functional
Rattus norvegicus [13] = test: Ratio of sodium ion/potassium ion concentration in treated rats to that in control rats, at a peroral dose of 1.6 mg/Kg; assay type: functional
Rattus norvegicus [14] = test: Ratio of urinary excretion value (urinary volume) in treated rats to that in control rats, at a peroral dose of 1.6 mg/Kg; assay type: functional, Urine
Rattus norvegicus [15] = test: Percent inhibition of serum creatinine by the compound given as ratio of UN value in treated to vehicle treated ones after intraperitoneal administration of 10 mg/kg of compound to rats(vehicle 146.7+/-10.1); assay type: functional; conditions: ip
Adenosine A2 receptor = Adenosine A2 receptor (Rattus norvegicus, UniProt P29276+P30543)
Rattus norvegicus [16] = test: Oral diuretic activity was measured after oral administration of 1.6 mg/kg to rats(control volume is 1.12+/-0.33); assay type: functional, Urine
Rattus norvegicus [17] = test: Ratio of urinary excretion value (Na+ concentration) in treated rats to that in control rats, at a peroral dose of 25 mg/Kg; assay type: functional, Urine
Rattus norvegicus [18] = test: Serum creatinine concentration measured after intraperitoneal administration of 1 mg/kg of compound to rats(vehicle 3.06+/-0.68); assay type: functional
Rattus norvegicus [19] = test: Ratio of urinary excretion value (urinary volume) in treated rats to that in control rats, at a peroral dose of 0.4 mg/Kg; assay type: functional, Urine
Rattus norvegicus [20] = test: Ratio of urinary excretion value (Na+ concentration) in treated rats to that in control rats, at a peroral dose of 0.4 mg/Kg; assay type: functional, Urine
Rattus norvegicus [21] = test: Percent inhibition of serum creatinine by the compound given as ratio of Cr value in treated to vehicle treated ones after intraperitoneal administration of 0.01 mg/kg of compound to rats(vehicle 3.92+/-0.23); assay type: functional; conditions: ip
Rattus norvegicus [22] = test: Oral diuretic activity was measured after oral administration of 1.6 mg/kg to rats(control volume is 0.97+/-0.05); assay type: functional, Urine
Rattus norvegicus [23] = test: Ratio of sodium ion/potassium ion concentration in treated rats to that in control rats, at a peroral dose of 0.4 mg/Kg; assay type: functional
Rattus norvegicus [24] = test: Ratio of urinary excretion value (Na+ concentration) in treated rats to that in control rats, at a peroral dose of 0.1 mg/Kg; assay type: functional, Urine
Rattus norvegicus [25] = test: Oral diuretic activity was measured after oral administration of 0.1 mg/kg to rats(control volume is 1.05+/-0.11); assay type: functional, Urine
Rattus norvegicus [26] = test: Ratio of urinary excretion value (urinary volume) in treated rats to that in control rats, at a peroral dose of 0.1 mg/Kg; assay type: functional, Urine
Rattus norvegicus [27] = test: Percent inhibition of Urea nitrogen by the compound given as ratio of UN value in treated to vehicle treated ones after intraperitoneal administration of 1 mg/kg of compound to rats(vehicle 195.8+/-14.4); assay type: functional; conditions: Rattus norvegicus, ip
Rattus norvegicus [28] = test: Oral diuretic activity was measured after oral administration of 0.4 mg/kg to rats(control volume is 0.96+/-0.09); assay type: functional, Urine
Rattus norvegicus [29] = species on record: Rattus norvegicus; test: animal or person; conditions: ip, read-out: Inhibition, dose 1 mg/kg, route intraperitoneal
Rattus norvegicus [30] = test: Serum creatinine concentration measured after intraperitoneal administration of 1 mg/kg of compound to rats(vehicle 5.07+/-0.33); assay type: functional
Rattus norvegicus [31] = species on record: Rattus norvegicus; test: Ratio of sodium ion/potassium ion concentration in treated rats to that in control rats, at a peroral dose of 0.1; assay type: functional
Rattus norvegicus [32] = test: Percent inhibition of Urea nitrogen by the compound given as ratio of UN value in treated to vehicle treated ones after intraperitoneal administration of 0.01 mg/kg of compound to rats(vehicle 141.3+/-8.3); assay type: functional; conditions: ip
Rattus norvegicus [33] = test: Percent inhibition of serum creatinine by the compound given as ratio of Cr value in treated to vehicle treated ones after intraperitoneal administration of 0.1 mg/kg of compound to rats(vehicle 4.82+/-0.17); assay type: functional; conditions: ip
Rattus norvegicus [34] = test: Effect on urinary excretion potassium and sodium after oral administration of 1.6 mg/kg to rats(potassium and sodium excretion in control rat is 0.169+/-0.012); assay type: functional, Urine
Rattus norvegicus [35] = test: Serum creatinine concentration measured after intraperitoneal administration of 0.1 mg/kg of compound to rats(vehicle 4.82+/-0.17); assay type: functional
Rattus norvegicus [36] = test: Urea nitrogen concentration measured after intraperitoneal administration of 0.1 mg/kg of compound to rats(vehicle 151.5+/-7.4); assay type: functional
Rattus norvegicus [37] = test: Urea nitrogen concentration measured after intraperitoneal administration of 1 mg/kg of compound to rats(vehicle 195.8+/-14.4); assay type: functional
Rattus norvegicus [38] = test: Urea nitrogen concentration measured after intraperitoneal administration of 0.01 mg/kg of compound to rats(vehicle 141.3+/-8.3); assay type: functional
Rattus norvegicus [39] = test: Serum creatinine concentration measured after intraperitoneal administration of 0.01 mg/kg of compound to rats(vehicle 3.92+/-0.23); assay type: functional
Rattus norvegicus [40] = test: Percent inhibition of Urea nitrogen by the compound given as ratio of UN value in treated to vehicle treated ones after intraperitoneal administration of 0.1 mg/kg of compound to rats(vehicle 151.5+/-7.4); assay type: functional; conditions: ip
Rattus norvegicus [41] = test: Effect on urinary excretion potassium and sodium after oral administration of 0.1 mg/kg to rats(potassium and sodium excretion in control rat is 0.180+/-0.017); assay type: functional, Urine
Rattus norvegicus [42] = test: Effect on urinary excretion potassium and sodium after oral administration of 0.4 mg/kg to rats(potassium and sodium excretion in control rat is 0.147+/-0.015); assay type: functional, Urine

For `CCCn1c(=O)c2nc(C[C@H]3CC4CCC3C4)[nH]c2n(CCC)c1=O` (some centres not stated), the “Na+/K+” value (Rattus norvegicus [1]) was 2.12, the Urine volume (Rattus norvegicus [2]) was 1.66 ml 6hr-1 100g-1 and the T/C (Rattus norvegicus [3]) was 2.41. It also gave an inhibition in vivo at 1 mg/kg (Rattus norvegicus [4]) of 10%, an inhibition in vivo at 10 mg/kg (Rattus norvegicus [5]) of 41% and a T/C (Rattus norvegicus [6]) of 0.83. The Na (Rattus norvegicus [7]) was 0.23 m equiv 6hr-1 100g-1, the UN (Rattus norvegicus [8]) was 104.7 mg/dL and the Na (Rattus norvegicus [9]) was 0.131 m equiv 6hr-1 100g-1. The UN (Rattus norvegicus [10]) was 90.9 mg/dL, the inhibition in vivo at 1 mg/kg (Rattus norvegicus [11]) was 13% and the Cr (Rattus norvegicus [12]) was 2.53 mg/dL. For the same compound, the “Na+/K+” value (Rattus norvegicus [13]) was 0.85, the T/C (Rattus norvegicus [14]) was 0.77 and the inhibition in vivo at 10 mg/kg (Rattus norvegicus [15]) was 38%. For the same compound, the Ki (Adenosine A2 receptor) was 1000 nM, the Urine volume (Rattus norvegicus [16]) was 0.86 ml 6hr-1 100g-1 and the T/C (Rattus norvegicus [17]) was 2.91. It also gave a Cr (Rattus norvegicus [18]) of 2.75 mg/dL.

Compound `Cn1c(=O)c2nc(C34CC5CC(CC3C5)C4)[nH]c2n(C)c1=O` has a T/C (Rattus norvegicus [19]) of 1.66, a T/C (Rattus norvegicus [20]) of 1.74 and an inhibition in vivo at 0.01 mg/kg (Rattus norvegicus [21]) of 10%. The Urine volume (Rattus norvegicus [22]) was 2.27 ml 6hr-1 100g-1, the “Na+/K+” value (Rattus norvegicus [23]) was 1.54 and the T/C (Rattus norvegicus [24]) was 0.91. The Urine volume (Rattus norvegicus [25]) was 0.86 ml 6hr-1 100g-1, the T/C (Rattus norvegicus [26]) was 0.82 and the inhibition in vivo at 1 mg/kg (Rattus norvegicus [27]) was 40%. The T/C (Rattus norvegicus [6]) was 2.36, the Urine volume (Rattus norvegicus [28]) was 1.59 ml 6hr-1 100g-1 and the inhibition in vivo at 1 mg/kg (Rattus norvegicus [29]) was 43%. For the same compound, the Cr (Rattus norvegicus [30]) was 2.88 mg/dL, the “Na+/K+” value (Rattus norvegicus [31]) was 0.97 and the inhibition in vivo at 0.01 mg/kg (Rattus norvegicus [32]) was 6%. For the same compound, the “Na+/K+” value (Rattus norvegicus [13]) was 1.67, the inhibition in vivo at 0.1 mg/kg (Rattus norvegicus [33]) was 35% and the Na (Rattus norvegicus [34]) was 0.398 m equiv 6hr-1 100g-1. The T/C (Rattus norvegicus [14]) was 2.34, the Ki (Adenosine A2 receptor) was 1200 nM and the Cr (Rattus norvegicus [35]) was 3.14 mg/dL. For the same compound, the UN (Rattus norvegicus [36]) was 97.3 mg/dL, the UN (Rattus norvegicus [37]) was 116.7 mg/dL and the UN (Rattus norvegicus [38]) was 133.4 mg/dL. For the same compound, the Cr (Rattus norvegicus [39]) was 3.53 mg/dL, the inhibition in vivo at 0.1 mg/kg (Rattus norvegicus [40]) was 36% and the Na (Rattus norvegicus [41]) was 0.163 m equiv 6hr-1 100g-1. For the same compound, the Na (Rattus norvegicus [42]) was 0.257 m equiv 6hr-1 100g-1.
